One assay has as its target T1, human GLP-1 R (Homo sapiens, UniProt P43220).
T1 construct: expressed in transfected cells
Briefly: Human GLP-1 receptor (GLP-1 R) activity assay, cAMP induction (AlphaScreen) in HEK293 cells. It counts as cell-based. As to conditions: read-out: hGLP1-R cAMP EC50 average value. On the procedure:
(§1) Human GIP Receptor (GIP R) and GLP-1 Receptor (GLP-1 R) Activity Assay
(§2) In vitro effects of peptide conjugates of the invention were assessed by measuring the induction of cAMP following stimulation of the respective receptor by GIP, GLP1 or analogues of these, as outlined in the invention, using the AlphaSceen® cAMP kit from Perkin-Elmer according to instructions. Briefly, HEK293 cells expressing the human GIP R or GLP-1 R (stable cell lines generated through transfection of the cDNA for human GIP R or GLP-1 and selection of stable clones) were seeded at 30,000 cells/well in 96-well microtiter plates coated with 0.01% poly-L-lysine, and grown for 1 day in culture in 200 μl growth medium (DMEM, 10% FCS, Penicillin (100 IU/ml), Streptomycin (100 μg/ml)). On the day of analysis, growth medium was removed and the cells were washed once with […] Tyrode's buffer (Tyrode's Salts (9.6 g/l), 10 mM HEPES, pH 7.4). […] The Assay buffer was removed and cells are lysed in 80 μl Lysis buffer (0.1% w/v BSA, 5 mM HEPES, 0.3% v/v Tween-20) per well. From each well 10 μl lysed cells was transferred to a 384-well plate and mixed with 15 μl bead-mix (1 Unit/15 μl anti-cAMP Acceptor Beads, 1 Unit/15 μl Donor Beads, and 1 Unit/15 μl Biotinylated cAMP in Assay Buffer). The plates were mixed and incubated in the dark for an hour at room temperature before measuring using an Envision™ plate reader (Perkin-Elmer).
(§3) The resulting cAMP curves were plotted as absolute cAMP concentrations (nM) over log (test compound concentration) and analyzed using the curve fitting program XLfit.
(§4) Parameters calculated to describe both the potency as well as the agonistic activity of each test compound on the receptors were:
(§5) EC50, a concentration resulting in a half-maximal elevation of cAMP levels, reflecting the potency of the test compound.
(In general: Bead proximity is the source of the signal in Alpha formats.)

The target in a further assay is T2, human GIP R (Homo sapiens, UniProt P48546).
T2 construct: expressed in transfected cells
T2 sequence (P48546 22-466): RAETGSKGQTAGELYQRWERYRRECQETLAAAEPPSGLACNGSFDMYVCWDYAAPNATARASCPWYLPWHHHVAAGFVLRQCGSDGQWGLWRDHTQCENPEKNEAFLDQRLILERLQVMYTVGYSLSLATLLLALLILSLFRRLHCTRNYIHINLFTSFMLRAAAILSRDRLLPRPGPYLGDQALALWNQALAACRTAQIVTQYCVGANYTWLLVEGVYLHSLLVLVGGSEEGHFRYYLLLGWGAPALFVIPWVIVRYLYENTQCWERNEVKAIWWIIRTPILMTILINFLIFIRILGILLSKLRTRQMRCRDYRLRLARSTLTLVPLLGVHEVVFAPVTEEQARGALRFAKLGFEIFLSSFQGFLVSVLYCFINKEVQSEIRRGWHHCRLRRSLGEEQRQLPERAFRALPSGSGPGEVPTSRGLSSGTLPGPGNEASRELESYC
The assay is described as follows: Human GIP receptor (GIP R) activity assay, cAMP induction (AlphaScreen) in HEK293 cells. In kind it is cell-based. Conditions: read-out: hGIP-R cAMP EC50 average value. The protocol:
as §1, §2, §3, §4, §5

Where [1] appears, read: Table 2, HEK293 cells expressing human GLP-1 R.
The mark [2] stands for this setting: Table 2a, secondary assay study.
Setting [3] is: Table 2, HEK293 cells expressing human GIP R.
The mark [4] stands for this setting: Table 3, most comprehensive data.

The source of these data is US10093713B2, “GIP-GLP-1 dual agonist compounds and methods” (priority 2013, dated 2018).

pEC50: −log10 of the molar value. Where two headings read alike, the source gives them in different places. *1 amine or outer side, *2 acyl side, *3 side chain or, on linkers, in order; H or OH if unused. Where a SMILES comes first, the peptide text is derived from it. Side-chain parts run from the residue outwards. [ ]: non-standard residue; d: D form. The star is where a group is joined. C18 diacid = O=C(O)CCCCCCCCCCCCCCCCC(=O)*; γGlu = O=C(O)[C@H](CCC(=O)[*:2])N[*:1]; Dap = NC[C@H](N)C(=O)O; AEEA = NCCOCCOCC(=O)O; Aib = CC(C)(N)C(=O)O

T1 sequence (P43220 24-463): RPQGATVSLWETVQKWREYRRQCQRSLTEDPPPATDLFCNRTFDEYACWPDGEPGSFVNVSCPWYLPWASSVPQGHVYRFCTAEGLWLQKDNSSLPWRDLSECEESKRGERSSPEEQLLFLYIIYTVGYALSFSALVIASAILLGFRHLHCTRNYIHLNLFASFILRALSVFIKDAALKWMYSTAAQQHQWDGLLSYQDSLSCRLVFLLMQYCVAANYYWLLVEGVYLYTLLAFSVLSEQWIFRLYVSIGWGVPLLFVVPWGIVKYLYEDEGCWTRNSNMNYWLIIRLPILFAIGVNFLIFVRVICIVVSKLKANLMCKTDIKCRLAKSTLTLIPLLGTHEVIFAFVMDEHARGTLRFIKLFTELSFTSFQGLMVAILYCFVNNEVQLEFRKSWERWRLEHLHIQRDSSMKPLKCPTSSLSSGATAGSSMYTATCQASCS

As usually defined, the pEC50 is −log10 of the EC50, conventionally taken in molar units. Take `CC[C@H](C)[C@H](NC(=O)[C@H](CO)NC(=O)[C@H](Cc1ccc(O)cc1)NC(=O)[C@H](CC(=O)O)NC(=O)[C@H](CO)NC(=O)[C@@H](NC(=O)[C@H](Cc1ccccc1)NC(=O)[C@@H](NC(=O)CNC(=O)[C@H](CCC(=O)O)NC(=O)C(C)(C)NC(=O)[C@@H](N)Cc1ccc(O)cc1)[C@@H](C)O)[C@@H](C)O)C(=O)N[C@@H](Cc1ccc(O)cc1)C(=O)N[C@@H](CC(C)C)C(=O)N[C@@H](CC(=O)O)C(=O)N[C@@H](CCCCN)C(=O)N[C@@H](CCCCNC(=O)COCCOCCNC(=O)COCCOCCNC(=O)CCCCCCCCCCCCCCCCC(=O)O)C(=O)N[C@@H](C)C(=O)N[C@@H](CCC(N)=O)C(=O)N[C@@H](CCCNC(=N)N)C(=O)N[C@@H](C)C(=O)N[C@@H](Cc1ccccc1)C(=O)N[C@H](C(=O)N[C@@H](CCC(=O)O)C(=O)N[C@@H](Cc1c[nH]c2ccccc12)C(=O)N[C@@H](CC(C)C)C(=O)N[C@@H](CC(C)C)C(=O)N[C@@H](C)C(=O)N[C@@H](CCC(N)=O)C(=O)NCC(=O)N1CCC[C@H]1C(=O)N[C@@H](CO)C(=O)N[C@@H](CO)C(=O)NCC(=O)N[C@@H](C)C(=O)N1CCC[C@H]1C(=O)N1CCC[C@H]1C(=O)N1CCC[C@H]1C(=O)N[C@@H](CO)C(N)=O)C(C)C` [Compound 5] (H-Y[Aib]EGTFTSDYSIYLDKK([AEEA-AEEA-C18 diacid])AQRAFVEWLLAQGPSSGAPPPS-NH2): the pEC50 was 10.85 at human GLP-1 R (setting [1]), 10.85 at human GLP-1 R (setting [2]), 10.92 at human GIP R (setting [3]) and 10.96 on human GIP R (setting [2]).
Take `CC[C@H](C)[C@H](NC(=O)[C@H](CO)NC(=O)[C@H](Cc1ccc(O)cc1)NC(=O)[C@H](CC(=O)O)NC(=O)[C@H](CO)NC(=O)[C@@H](NC(=O)[C@H](Cc1ccccc1)NC(=O)[C@@H](NC(=O)CNC(=O)[C@H](CCC(=O)O)NC(=O)C(C)(C)NC(=O)[C@@H](N)Cc1ccc(O)cc1)[C@@H](C)O)[C@@H](C)O)C(=O)N[C@@H](Cc1ccc(O)cc1)C(=O)N[C@@H](CC(C)C)C(=O)N[C@@H](CC(=O)O)C(=O)N[C@@H](CCCCN)C(=O)N[C@@H](CCCCNC(=O)COCCOCCNC(=O)COCCOCCNC(=O)COCCOCCNC(=O)CC[C@H](NC(=O)CCCCCCCCCCCCCCCCC(=O)O)C(=O)O)C(=O)N[C@@H](C)C(=O)N[C@@H](CCC(N)=O)C(=O)N[C@@H](CCCNC(=N)N)C(=O)N[C@@H](C)C(=O)N[C@@H](Cc1ccccc1)C(=O)N[C@H](C(=O)N[C@@H](CCC(=O)O)C(=O)N[C@@H](Cc1c[nH]c2ccccc12)C(=O)N[C@@H](CC(C)C)C(=O)N[C@@H](CC(C)C)C(=O)N[C@@H](C)C(=O)N[C@@H](CCC(N)=O)C(=O)NCC(=O)N1CCC[C@H]1C(=O)N[C@@H](CO)C(=O)N[C@@H](CO)C(=O)NCC(=O)N[C@@H](C)C(=O)N1CCC[C@H]1C(=O)N1CCC[C@H]1C(=O)N1CCC[C@H]1C(=O)N[C@@H](CO)C(N)=O)C(C)C` [Compound 6]: the pEC50 on human GLP-1 R (setting [1]) is 10.80; at human GIP R (setting [3]), 11.31; at human GIP R (setting [2]), 11.30; at human GIP R (setting [4]) it was 11.30.
`CC[C@H](C)[C@H](NC(=O)[C@H](CO)NC(=O)[C@H](Cc1ccc(O)cc1)NC(=O)[C@H](CC(=O)O)NC(=O)[C@H](CO)NC(=O)[C@@H](NC(=O)[C@H](Cc1ccccc1)NC(=O)[C@@H](NC(=O)CNC(=O)[C@H](CCC(=O)O)NC(=O)C(C)(C)NC(=O)[C@@H](N)Cc1ccc(O)cc1)[C@@H](C)O)[C@@H](C)O)C(=O)N[C@@H](Cc1ccc(O)cc1)C(=O)N[C@@H](CC(C)C)C(=O)N[C@@H](CC(=O)O)C(=O)N[C@@H](CCCCN)C(=O)N[C@@H](CCCCNC(=O)COCCOCCNC(=O)COCCOCCNC(=O)[C@H](CN)NC(=O)CCCCCCCCCCCCCCCCC(=O)O)C(=O)N[C@@H](C)C(=O)N[C@@H](CCC(N)=O)C(=O)N[C@@H](CCCNC(=N)N)C(=O)N[C@@H](C)C(=O)N[C@@H](Cc1ccccc1)C(=O)N[C@H](C(=O)N[C@@H](CCC(=O)O)C(=O)N[C@@H](Cc1c[nH]c2ccccc12)C(=O)N[C@@H](CC(C)C)C(=O)N[C@@H](CC(C)C)C(=O)N[C@@H](C)C(=O)N[C@@H](CCC(N)=O)C(=O)NCC(=O)N1CCC[C@H]1C(=O)N[C@@H](CO)C(=O)N[C@@H](CO)C(=O)NCC(=O)N[C@@H](C)C(=O)N1CCC[C@H]1C(=O)N1CCC[C@H]1C(=O)N1CCC[C@H]1C(=O)N[C@@H](CO)C(N)=O)C(C)C` [Compound 7] (H-Y[Aib]EGTFTSDYSIYLDKK([AEEA-AEEA-Dap-C18 diacid])AQRAFVEWLLAQGPSSGAPPPS-NH2): the pEC50 on human GLP-1 R (setting [1]) is 10.92; on human GIP R (setting [3]) it was 10.96.
Consider `CC[C@H](C)[C@H](NC(=O)[C@H](CO)NC(=O)[C@H](Cc1ccc(O)cc1)NC(=O)[C@H](CC(=O)O)NC(=O)[C@H](CO)NC(=O)[C@@H](NC(=O)[C@H](Cc1ccccc1)NC(=O)[C@@H](NC(=O)CNC(=O)[C@H](CCC(=O)O)NC(=O)[C@@H](C)NC(=O)[C@@H](N)Cc1ccc(O)cc1)[C@@H](C)O)[C@@H](C)O)C(=O)N[C@@H](Cc1ccc(O)cc1)C(=O)N[C@@H](CC(C)C)C(=O)N[C@@H](CC(=O)O)C(=O)N[C@@H](CCCCN)C(=O)N[C@@H](CCCCNC(=O)COCCOCCNC(=O)COCCOCCNC(=O)CC[C@H](NC(=O)CCCCCCCCCCCCCCCCC(=O)O)C(=O)O)C(=O)N[C@@H](C)C(=O)N[C@@H](CCC(N)=O)C(=O)N[C@@H](CCCNC(=N)N)C(=O)N[C@@H](C)C(=O)N[C@@H](Cc1ccccc1)C(=O)N[C@H](C(=O)N[C@@H](CCC(=O)O)C(=O)N[C@@H](Cc1c[nH]c2ccccc12)C(=O)N[C@@H](CC(C)C)C(=O)N[C@@H](CC(C)C)C(=O)N[C@@H](C)C(=O)N[C@@H](CCC(N)=O)C(=O)NCC(=O)N1CCC[C@H]1C(=O)N[C@@H](CO)C(=O)N[C@@H](CO)C(=O)NCC(=O)N[C@@H](C)C(=O)N1CCC[C@H]1C(=O)N1CCC[C@H]1C(=O)N1CCC[C@H]1C(=O)N[C@@H](CO)C(N)=O)C(C)C` [Compound 9] (H-Y[dA]EGTFTSDYSIYLDKK([AEEA-AEEA-γGlu-C18 diacid])AQRAFVEWLLAQGPSSGAPPPS-NH2), for which the pEC50 was 10.42 on human GLP-1 R (setting [1]); 10.41 at human GLP-1 R (setting [2]); 11.06 at human GIP R (setting [3]); 11.05 at human GIP R (setting [2]); 11.05 on human GIP R (setting [4]).
As to `CC[C@H](C)[C@H](NC(=O)[C@H](CO)NC(=O)[C@H](Cc1ccc(O)cc1)NC(=O)[C@H](CC(=O)O)NC(=O)[C@H](CO)NC(=O)[C@@H](NC(=O)[C@H](Cc1ccccc1)NC(=O)[C@@H](NC(=O)CNC(=O)[C@H](CCC(=O)O)NC(=O)C(C)(C)NC(=O)[C@@H](N)Cc1ccc(O)cc1)[C@@H](C)O)[C@@H](C)O)C(=O)N[C@@H](Cc1ccc(O)cc1)C(=O)N[C@@H](CC(C)C)C(=O)N[C@@H](CCC(=O)O)C(=O)N[C@@H](CCCCN)C(=O)N[C@@H](CCCCNC(=O)COCCOCCNC(=O)COCCOCCNC(=O)CC[C@H](NC(=O)CCCCCCCCCCCCCCCCC(=O)O)C(=O)O)C(=O)N[C@@H](C)C(=O)N[C@@H](C)C(=O)N[C@@H](CCCCN)C(=O)N[C@@H](CCC(=O)O)C(=O)N[C@@H](Cc1ccccc1)C(=O)N[C@H](C(=O)N[C@@H](CCC(=O)O)C(=O)N[C@@H](Cc1c[nH]c2ccccc12)C(=O)N[C@@H](CC(C)C)C(=O)N[C@@H](CC(C)C)C(=O)N[C@@H](CO)C(=O)N[C@@H](C)C(=O)NCC(=O)N1CCC[C@H]1C(=O)N[C@@H](CO)C(=O)N[C@@H](CO)C(=O)NCC(=O)N[C@@H](C)C(=O)N1CCC[C@H]1C(=O)N1CCC[C@H]1C(=O)N1CCC[C@H]1C(=O)N[C@@H](CO)C(N)=O)C(C)C` [Compound 10] (H-Y[Aib]EGTFTSDYSIYLEKK([AEEA-AEEA-γGlu-C18 diacid])AAKEFVEWLLSAGPSSGAPPPS-NH2), the pEC50 is 10.55 on human GLP-1 R (setting [1]), 10.54 on human GLP-1 R (setting [2]), 10.80 at human GIP R (setting [3]) and 10.80 on human GIP R (setting [2]).
